Data: patent publication US20260248811A1, “COMPOSITIONS FOR TREATING AN INDIVIDUAL FOR IMPROVEMENT OF COGNITIVE FUNCTIONS” (priority 2023, published 2026)

Experiments:
[1] = Total and free testosterone in blood plasma 15 minutes after sublingual intake of the androgen(s); type: in vivo, human; details: measured not calculated, 5 mg T or 5 mg T + 5 mg DHT
Description: Testosterone (T) vs. testosterone and dihydrotestosterone (T+DHT) The first example concerns two male heterosexual patients. Two alternative forms of testosterone administration were considered for a treatment. The first treatment involved taking 5 mg sublingual testosterone (T) (solution consisting of alcohol, denaturalized water, testosterone and cyclodextrins). The second consisted of simultaneously taking 5 mg sublingual testosterone and 5 mg sublingual dihydrotestosterone (DHT) (solution consisting of alcohol, denaturalized water, DHT and cyclodextrins). The testosterone and DHT solutions were prepared by a pharmacist on the request of a general practitioner. Subsequently, the changes in total testosterone and free testosterone in blood plasma were examined, 15 minutes after intake of the androgen(s).
The table below describes the effects of the different treatments on ‘total testosterone’ and ‘free testosterone (i.e. measured, not calculated)’ for both patients:
This is consistent with the assumption that SHBG becomes more saturated as a result of the binding of DHT to SHBG. This means that the ingested testosterone can no longer bind to SHBG, and consequently there will be a greater increase in unbound testosterone (i.e. free testosterone). […] Total testosterone and free testosterone were measured 15 minutes after the administration of T and (T&DHT). dysfunction/disorder

[2] = sublingually with cyclodextrins (women about 0.1-2 mg; men about 0.5-20 mg); cited from earlier work
[3] = intranasal administration; cited from earlier work

Row | SMILES | Free T ([1]; Patient 1, blood plasma) | Free T ([1]; Patient 2, blood plasma) | Time to pharmacological peak in testosterone and free testosterone [2] | Return of oxytocin levels to baseline [3] | T-max of oxytocin levels in the blood circulation [3]
1 | C[C@]12CC[C@H]3[C@@H](CCC4=CC(=O)CC[C@@]43C)[C@@H]1CC[C@@H]2O [T, 17-β-hydroxyandrost-4-en-3-one] | 440 pml/L | 1030 pml/L | about 15 minutes |  | 
2 | CC[C@H](C)[C@@H]1NC(=O)[C@H](Cc2ccc(O)cc2)NC(=O)[C@@H](N)CSSC[C@@H](C(=O)N2CCC[C@H]2C(=O)N[C@@H](CC(C)C)C(=O)NCC(N)=O)NC(=O)[C@H](CC(N)=O)NC(=O)[C@H](CCC(N)=O)NC1=O [oxytocin] |  |  |  | approximately 90 minutes | approximately 15 minutes
